Results: PubChem BioAssay (NCI)
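Cultured in 96-well plates, cells were exposed to test compound for 48 hours across five concentrations. At the TGI there is no net growth.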

Tests used:
Assay in all cases: NCI tumour cell line growth inhibition, 48 h
786-0 renal = test system: 786-0 renal
A498 renal = test system: A498 renal
A549 NSCLC = test system: A549 NSCLC
ACHN renal = test system: ACHN renal
CAKI-1 renal = test system: CAKI-1 renal
CCRF-CEM leukemia = test system: CCRF-CEM leukemia
COLO 205 colon = test system: COLO 205 colon
DLD-1 colon = test system: DLD-1 colon
DMS 114 small cell lung = test system: DMS 114 small cell lung
DMS 273 small cell lung = test system: DMS 273 small cell lung
EKVX NSCLC = test system: EKVX NSCLC
HCC-2998 colon = test system: HCC-2998 colon
HCT-116 colon = test system: HCT-116 colon
HCT-15 colon = test system: HCT-15 colon
HL-60(TB) leukemia = test system: HL-60(TB) leukemia
HOP-18 NSCLC = test system: HOP-18 NSCLC
HOP-92 NSCLC = test system: HOP-92 NSCLC
HT29 colon = test system: HT29 colon
IGROV1 ovarian = test system: IGROV1 ovarian
K-562 leukemia = test system: K-562 leukemia
LOX IMVI melanoma = test system: LOX IMVI melanoma
LXFL 529 NSCLC = test system: LXFL 529 NSCLC
M14 melanoma = test system: M14 melanoma
M19-MEL melanoma = test system: M19-MEL melanoma
MOLT-4 leukemia = test system: MOLT-4 leukemia
NCI-H226 lung = test system: NCI-H226 lung
NCI-H23 lung = test system: NCI-H23 lung
NCI-H460 lung = test system: NCI-H460 lung
NCI-H522 lung = test system: NCI-H522 lung
OVCAR-8 ovarian = test system: OVCAR-8 ovarian
RPMI-8226 leukemia = test system: RPMI-8226 leukemia
RXF 393 renal = test system: RXF 393 renal
RXF-631 renal = test system: RXF-631 renal
SF-539 CNS = test system: SF-539 CNS
SK-MEL-28 melanoma = test system: SK-MEL-28 melanoma
SK-MEL-5 melanoma = test system: SK-MEL-5 melanoma
SK-OV-3 ovarian = test system: SK-OV-3 ovarian
SN12C renal = test system: SN12C renal
SNB-75 CNS = test system: SNB-75 CNS
SNB-78 CNS = test system: SNB-78 CNS
SW-620 colon = test system: SW-620 colon
TK-10 renal = test system: TK-10 renal
U251 CNS = test system: U251 CNS
UACC-257 melanoma = test system: UACC-257 melanoma
UACC-62 melanoma = test system: UACC-62 melanoma
UO-31 renal = test system: UO-31 renal
HOP-62 NSCLC = test system: HOP-62 NSCLC
KM12 colon = test system: KM12 colon
KM20L2 colon = test system: KM20L2 colon
MALME-3M melanoma = test system: MALME-3M melanoma
OVCAR-3 ovarian = test system: OVCAR-3 ovarian
OVCAR-4 ovarian = test system: OVCAR-4 ovarian
OVCAR-5 ovarian = test system: OVCAR-5 ovarian
SF-268 CNS = test system: SF-268 CNS
SF-295 CNS = test system: SF-295 CNS
SK-MEL-2 melanoma = test system: SK-MEL-2 melanoma
SNB-19 CNS = test system: SNB-19 CNS
SR leukemia = test system: SR leukemia
XF 498 CNS = test system: XF 498 CNS
BT-549 breast = test system: BT-549 breast
DU-145 prostate = test system: DU-145 prostate
HS 578T breast = test system: HS 578T breast
MCF7 breast = test system: MCF7 breast
MDA-MB-231 breast = test system: MDA-MB-231 breast
MDA-MB-435 = test system: MDA-MB-435
MDA-N = test system: MDA-N
NCI/ADR-RES ovarian = test system: NCI/ADR-RES ovarian
PC-3 prostate = test system: PC-3 prostate

CCC(C)CC(C)CC(C)/C=C(\C)C1=C(C)CC(C)(O)O1 (stereo unspecified)
TGI (786-0 renal): > 100 µM | TGI (A498 renal): > 100 µM | TGI (A549 NSCLC): > 100 µM | TGI (ACHN renal): > 100 µM | TGI (CAKI-1 renal): > 100 µM | TGI (CCRF-CEM leukemia): > 100 µM | TGI (COLO 205 colon): > 100 µM | TGI (DLD-1 colon): > 100 µM | TGI (DMS 114 small cell lung): > 100 µM | TGI (DMS 273 small cell lung): > 100 µM | TGI (EKVX NSCLC): > 100 µM | TGI (HCC-2998 colon): > 100 µM | TGI (HCT-116 colon): > 100 µM | TGI (HCT-15 colon): > 100 µM | TGI (HL-60(TB) leukemia): 79 µM | TGI (HOP-18 NSCLC): > 100 µM | TGI (HOP-92 NSCLC): 79.7 µM | TGI (HT29 colon): > 100 µM | TGI (IGROV1 ovarian): > 100 µM | TGI (K-562 leukemia): > 100 µM | TGI (LOX IMVI melanoma): > 100 µM | TGI (LXFL 529 NSCLC): > 100 µM | TGI (M14 melanoma): > 100 µM | TGI (M19-MEL melanoma): > 100 µM | TGI (MOLT-4 leukemia): > 100 µM | TGI (NCI-H226 lung): > 100 µM | TGI (NCI-H23 lung): > 100 µM | TGI (NCI-H460 lung): > 100 µM | TGI (NCI-H522 lung): > 100 µM | TGI (OVCAR-8 ovarian): > 100 µM | TGI (RPMI-8226 leukemia): 90.7 µM | TGI (RXF 393 renal): > 100 µM | TGI (RXF-631 renal): > 100 µM | TGI (SF-539 CNS): > 100 µM | TGI (SK-MEL-28 melanoma): > 100 µM | TGI (SK-MEL-5 melanoma): > 100 µM | TGI (SK-OV-3 ovarian): > 100 µM | TGI (SN12C renal): > 100 µM | TGI (SNB-75 CNS): > 100 µM | TGI (SNB-78 CNS): > 100 µM | TGI (SW-620 colon): > 100 µM | TGI (TK-10 renal): > 100 µM | TGI (U251 CNS): > 100 µM | TGI (UACC-257 melanoma): > 100 µM | TGI (UACC-62 melanoma): > 100 µM | TGI (UO-31 renal): > 100 µM

CC1OC(=O)C(O)=C1O (stereo unspecified)
TGI (786-0 renal): > 100 µM | TGI (A549 NSCLC): > 100 µM | TGI (ACHN renal): > 100 µM | TGI (CAKI-1 renal): > 100 µM | TGI (CCRF-CEM leukemia): > 100 µM | TGI (COLO 205 colon): > 100 µM | TGI (DMS 273 small cell lung): > 100 µM | TGI (EKVX NSCLC): > 100 µM | TGI (HCC-2998 colon): > 100 µM | TGI (HCT-116 colon): > 100 µM | TGI (HCT-15 colon): > 100 µM | TGI (HOP-18 NSCLC): > 100 µM | TGI (HOP-62 NSCLC): > 100 µM | TGI (HOP-92 NSCLC): > 100 µM | TGI (HT29 colon): > 100 µM | TGI (IGROV1 ovarian): > 100 µM | TGI (K-562 leukemia): > 100 µM | TGI (KM12 colon): > 100 µM | TGI (KM20L2 colon): > 100 µM | TGI (LOX IMVI melanoma): > 100 µM | TGI (LXFL 529 NSCLC): > 100 µM | TGI (M14 melanoma): > 100 µM | TGI (M19-MEL melanoma): > 100 µM | TGI (MALME-3M melanoma): > 100 µM | TGI (MOLT-4 leukemia): > 100 µM | TGI (NCI-H226 lung): > 100 µM | TGI (NCI-H23 lung): > 100 µM | TGI (NCI-H460 lung): > 100 µM | TGI (NCI-H522 lung): > 100 µM | TGI (OVCAR-3 ovarian): > 100 µM | TGI (OVCAR-4 ovarian): > 100 µM | TGI (OVCAR-5 ovarian): > 100 µM | TGI (OVCAR-8 ovarian): > 100 µM | TGI (RPMI-8226 leukemia): > 100 µM | TGI (RXF 393 renal): > 100 µM | TGI (SF-268 CNS): > 100 µM | TGI (SF-295 CNS): > 100 µM | TGI (SF-539 CNS): > 100 µM | TGI (SK-MEL-2 melanoma): > 100 µM | TGI (SK-MEL-5 melanoma): > 100 µM | TGI (SK-OV-3 ovarian): > 100 µM | TGI (SN12C renal): > 100 µM | TGI (SNB-19 CNS): > 100 µM | TGI (SNB-75 CNS): > 100 µM | TGI (SNB-78 CNS): > 100 µM | TGI (SR leukemia): > 100 µM | TGI (SW-620 colon): > 100 µM | TGI (TK-10 renal): > 100 µM | TGI (U251 CNS): > 100 µM | TGI (UACC-257 melanoma): > 100 µM | TGI (UACC-62 melanoma): > 100 µM | TGI (UO-31 renal): > 100 µM | TGI (XF 498 CNS): > 100 µM

CN(C)CC1CC/C(=C\c2ccc3c(c2)OCO3)C1=O (stereo unspecified)
TGI (786-0 renal): 13 µM | TGI (A498 renal): 52.1 µM | TGI (A549 NSCLC): > 75.3 µM | TGI (ACHN renal): 28.5 µM | TGI (BT-549 breast): 24.9 µM | TGI (CAKI-1 renal): 23.1 µM | TGI (CCRF-CEM leukemia): 19.7 µM | TGI (COLO 205 colon): 18 µM | TGI (DLD-1 colon): 40.3 µM | TGI (DMS 114 small cell lung): 37.3 µM | TGI (DMS 273 small cell lung): 30.9 µM | TGI (DU-145 prostate): 19.7 µM | TGI (EKVX NSCLC): 39.4 µM | TGI (HCC-2998 colon): 50.7 µM | TGI (HCT-116 colon): 18.6 µM | TGI (HCT-15 colon): 15 µM | TGI (HL-60(TB) leukemia): 11 µM | TGI (HOP-18 NSCLC): 29.7 µM | TGI (HOP-62 NSCLC): > 70.1 µM | TGI (HOP-92 NSCLC): 33.1 µM | TGI (HS 578T breast): > 100 µM | TGI (HT29 colon): 59 µM | TGI (IGROV1 ovarian): 26.9 µM | TGI (K-562 leukemia): 11.4 µM | TGI (KM12 colon): 18.9 µM | TGI (KM20L2 colon): 36.5 µM | TGI (LOX IMVI melanoma): 3.72 µM | TGI (LXFL 529 NSCLC): 25.4 µM | TGI (M14 melanoma): 15 µM | TGI (M19-MEL melanoma): 35.5 µM | TGI (MALME-3M melanoma): 18.3 µM | TGI (MCF7 breast): 19.8 µM | TGI (MDA-MB-231 breast): 4.25 µM | TGI (MDA-MB-435): 4.43 µM | TGI (MDA-N): 15.6 µM | TGI (MOLT-4 leukemia): 13.8 µM | TGI (NCI-H226 lung): 50.6 µM | TGI (NCI-H23 lung): 24.4 µM | TGI (NCI-H460 lung): 47.9 µM | TGI (NCI-H522 lung): 8.51 µM | TGI (NCI/ADR-RES ovarian): 12.4 µM | TGI (OVCAR-3 ovarian): 15.3 µM | TGI (OVCAR-4 ovarian): 18.9 µM | TGI (OVCAR-5 ovarian): 39.3 µM | TGI (OVCAR-8 ovarian): 19.2 µM | TGI (PC-3 prostate): 27.1 µM | TGI (RXF 393 renal): 29.1 µM | TGI (RXF-631 renal): 31.2 µM | TGI (SF-268 CNS): 26.7 µM | TGI (SF-295 CNS): 56.8 µM | TGI (SF-539 CNS): 31 µM | TGI (SK-MEL-2 melanoma): 22.8 µM | TGI (SK-MEL-28 melanoma): 22.9 µM | TGI (SK-MEL-5 melanoma): 28 µM | TGI (SK-OV-3 ovarian): > 57 µM | TGI (SN12C renal): 30.3 µM | TGI (SNB-19 CNS): 36 µM | TGI (SNB-75 CNS): 28.5 µM | TGI (SNB-78 CNS): 51 µM | TGI (SR leukemia): 11 µM | TGI (SW-620 colon): 14.4 µM | TGI (TK-10 renal): 25.1 µM | TGI (U251 CNS): 36.1 µM | TGI (UACC-257 melanoma): 20.1 µM | TGI (UACC-62 melanoma): 30.4 µM | TGI (UO-31 renal): 24.8 µM | TGI (XF 498 CNS): 32.7 µM
